In paper PMC11080064, “Inositol Hexaphosphate as an Inhibitor and Potential Regulator of p47^phox Membrane Anchoring” (Biochemistry, 2024):
Entries after “also recorded” stand apart in the source; their conditions may differ.

What was measured:
[1] = molecular target: T1, p47phox-PX (PX domain of p47phox, residues 1-128) (Homo sapiens, UniProt P14598); assay: 1H-15N-HSQC NMR titration (chemical shift perturbation) of inositol phosphates; type: binding; details: for Kd / binding observed by NMR (CSPs): 100 μM p47phox-PX; for Kd: pH 6.0, 25 °C, read-out: Kd (binding affinity, global fit of CSPs); for binding observed by NMR (CSPs): up to 64 mM
T1 construct: poly histidine tag (TEV cleavable) (cleaved yes); made in house; host or cells: E. coli BL21 (DE3)
T1 sequence (P14598 1-128): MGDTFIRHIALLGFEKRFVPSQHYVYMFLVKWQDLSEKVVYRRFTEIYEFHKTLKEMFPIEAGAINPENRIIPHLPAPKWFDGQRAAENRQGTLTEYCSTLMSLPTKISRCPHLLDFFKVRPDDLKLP
Method: All NMR samples were prepared with either ^15N- or ^15N–^13C-p47^phox-PX in 50 mM Bis-Tris (pH 6.0), 100 mM NaCl, 1 mM DTT, 0.02% (v/v) sodium azide and 10% D2O as a lock solvent. Protein concentration was typically 100 μM in each sample, as confirmed by the Bradford Assay. NMR experiments were collected on a 600 MHz Bruker AVANCE III equipped with a TXI triple resonance probe at 25 °C. NMR assignments of the PX domain were transferred from a previous publication,[24] then were confirmed, and expanded by collection of 3D HNCA, HN(CA)CB, and CBCA(CO)NH experiments on a 700 MHz Bruker AVANCE III at 25 °C.[41]−[43] Standard Bruker pulse sequences were used with the HNCA collected with 64 scans and 1024 × 40 × 48 total points, the HN(CA)CB collected with 64 scans and 1024 × 40 × 64 total points, and the CBCA(CO)NH collected with 32 scans and 1024 × 40 × 96 total points. NMR data was processed with NMRPipe[44] and analyzed using NMRFAM-Sparky.[45]
For NMR titrations, inositol phosphate stocks were prepared in the same NMR buffer, the IP6 stock was pH adjusted, and added in 0.25, 0.5, 2, and 4 to 1 mol equiv to the PX domain of p47^phox. Due to the high buffering capacity of IPs, pH values were checked during titrations and corrected as needed. ^1H–^15N-HSQC spectra were collected at each titration point, using a standard Bruker pulse sequence, collected with 2048 × 100 total points and 16 or 32 scans. Chemical shift perturbations (CSPs) were calculated using weighted chemical shifts in the following formula[46]: [drawing 1] where Δ^1H and Δ^15N represent the changes in the ^1H and ^15N chemical shifts for each resonance. To calculate the binding affinity of IPs to the PX domain of p47^phox, residues with ≥0.08 CSP at the highest titration point were fit to the following formula, which accounts for ligand depletion, on GraphPad Prism 10: [drawing 2] where CSP denotes the CSP of the individual residue at each IP concentration ([L]), Dmax represents the CSP at saturation, [P] represents the concentration of p47^phox-PX, and Kd represents the dissociation constant of p47^phox-PX and IP. The formula was initially fit to each residue individually and any residue with R^2 < 0.95 was removed before fitting the data globally to determine the overall binding affinity.

[2] = molecular target: T2, p47phox-PX (Homo sapiens, UniProt P14598); assay: Fluorescence polarization competition against BODIPY-PI(3,4)P2 tracer; type: binding
T2 construct: poly histidine tag (TEV cleavable) (cleaved yes); made in house; host or cells: E. coli BL21 (DE3)
T2 sequence (P14598 1-128): T1 sequence (P14598 1-128)
Method: All fluorescence polarization (FP) experiments were performed using BODIPY-FL diC6–PI(3,4)P2 [Echelon Biosciences (Salt Lake City, UT)] as the reporting tracer. […] Each sample contained 50 nM BODIPY-PI(3,4)P2 and was plated in triplicate on a black half area 96-well microplate [Corning (Corning, NY)]. The plate was centrifuged at 500 rpm for 30 s prior to analysis on a SpectraMax M5 [Molecular Devices (San Jose, CA)]. Measurements were taken using a monochromator with fixed excitation and emission wavelengths of 485 and 525 nm, respectively, and a cutoff of 515 nm. Raw data was converted to millipolarization (mP) using the SoftMax Pro software [Molecular Devices (San Jose, CA)]. mP values were then converted to anisotropy (A) using the following formula: [drawing 3]
A 2-fold dilution series of IP was performed, ranging from 50–0.05 μM IP in the presence of 2.5 μM p47^phox-PX and 50 nM BODIPY-PI(3,4)P2. Samples were plated in triplicate on a black half area microplate, centrifuged at 500 rpm for 30 s, and incubated for 1 h prior to analysis. The data was converted to anisotropy and fit to a four-parameter, variable slope, dose–response equation on GraphPad Prism 10. The IC50 from the dose–response equation was converted to an inhibitory constant (Ki) using a IC50-to-Ki calculator, which incorporated the following formula[47]: [drawing 5] where I50 and L50 are the free concentrations of IP and BODIPY-PI(3,4)P2, respectively, at 50% inhibition, and P0 is the free concentration of p47^phox-PX in the absence of IP.

[3] = molecular target: T3, p47phox-PX binding to PI(3,4)P2-containing liposomes (Homo sapiens, UniProt P14598); assay: Dansyl-PE liposome FRET assay of membrane anchoring; type: biochemical; details: 2.5 μM p47phox-PX, 125 μM accessible lipid, 79:15:1:5 POPC:POPE:diC16-PI(3,4)P2:Dansyl-PE, pH 7.0, 1 mM MgCl2; read-out: apparent IC50 of inhibition of membrane anchoring
T3 construct: poly histidine tag (TEV cleavable) (cleaved yes); made in house; host or cells: E. coli BL21 (DE3)
T3 sequence (P14598 1-128): T1 sequence (P14598 1-128)
Method: To ensure proper liposome formation, phosphatidylinositol stocks were protonated prior to use adapted from a previously published protocol.[28] In brief, lyophilized PI(3,4)P2 lipids were resuspended in CHCl3 and dried under nitrogen. Lipids were then further dried under a speed vacuum for 1 h followed by a resuspension into 2:1:0.01 CHCl3: MeOH: 1 M HCl. The suspension was allowed to sit at room temperature for 15 min before the drying process was repeated. Lipids were then reconstituted in 3:1 CHCl3: MeOH and dried as above. The process was repeated with CHCl3 before a final resuspension into CHCl3 at the desired concentration and storage of protonated stocks at −80 °C. […]
The FRET assay was performed based on a previously published protocol,[48] where intrinsic tryptophan fluorescence within the PX domain was utilized as the donor fluorophore and Dansyl-PE incorporated within liposomes as the acceptor fluorophore. […] Samples were mixed for 40 s after each IP6 addition and were analyzed on an OLIS 14 TB NIR/CD Spectrophotometer [Olis (Bogart, GA)] equipped with a UV/vis photon counter 230–870 nm fluorescence detector. […] Each titration point measurement was integrated over 10 s and measured in triplicate. […]

[4] = molecular target: T2, p47phox-PX; assay: Fluorescence polarization direct binding of BODIPY-PI(3,4)P2 tracer; details: 50 nM tracer, 10-0.02 μM protein, pH 7.0, 1 mM MgCl2
Method: All fluorescence polarization (FP) experiments were performed using BODIPY-FL diC6–PI(3,4)P2 [Echelon Biosciences (Salt Lake City, UT)] as the reporting tracer. To determine the binding affinity of the fluorophore to p47^phox-PX, a series of 2-fold dilutions, ranging from 10–0.02 μM protein, were performed in 50 mM Bis-Tris (pH 7.0), 100 mM NaCl, 1 mM MgCl2, and 1 mM DTT. Each sample contained 50 nM BODIPY-PI(3,4)P2 and was plated in triplicate on a black half area 96-well microplate [Corning (Corning, NY)]. The plate was centrifuged at 500 rpm for 30 s prior to analysis on a SpectraMax M5 [Molecular Devices (San Jose, CA)]. Measurements were taken using a monochromator with fixed excitation and emission wavelengths of 485 and 525 nm, respectively, and a cutoff of 515 nm. Raw data was converted to millipolarization (mP) using the SoftMax Pro software [Molecular Devices (San Jose, CA)]. mP values were then converted to anisotropy (A) using the following formula: [drawing 3] […]

O=P(O)(O)O[C@H]1[C@H](O)[C@@H](O)[C@H](OP(=O)(O)O)[C@@H](OP(=O)(O)O)[C@H]1O [IP3, inositol (1,3,4) trisphosphate]
Kd ([1]; NMR titration): 200 ± 50 µM

O=P(O)(O)O[C@H]1[C@H](O)[C@@H](OP(=O)(O)O)[C@H](OP(=O)(O)O)[C@@H](OP(=O)(O)O)[C@H]1O [IP4, inositol (1,3,4,5) tetrakisphosphate]
Kd ([1]; NMR titration): 100 ± 11 µM

O=P(O)(O)O[C@@H]1[C@@H](OP(=O)(O)O)[C@H](OP(=O)(O)O)[C@H](O)[C@H](OP(=O)(O)O)[C@H]1OP(=O)(O)O [IP5, inositol (1,3,4,5,6) pentakisphosphate]
competition with BODIPY-PI(3,4)P2 binding ([2]; up to 50 μM, 2.5 μM p47phox-PX, 50 nM tracer): no apparent capacity to inhibit; also recorded: no significant observed competition | Kd ([1]; NMR titration): 58 ± 6 µM

O=P(O)(O)O[C@H]1[C@H](OP(=O)(O)O)[C@@H](OP(=O)(O)O)[C@H](OP(=O)(O)O)[C@@H](OP(=O)(O)O)[C@H]1OP(=O)(O)O [IP6, inositol hexaphosphate]
Ki ([2]; 2.5 μM p47phox-PX, 50 nM BODIPY-PI(3,4)P2, pH 7.0, 1 mM MgCl2, read-out: Ki (inhibition constant, converted from IC50)): 0.6 ± 0.2 µM | effect of lower pH on inhibition / Ki ([2]; pH 6 with 1 mM MgCl2, compared to pH 7.0): no significant change in Ki; also recorded: only a minor effect | effect of absence of MgCl2 on inhibition / Ki ([2]; pH 6 with no MgCl2): no significant change in Ki; also recorded: little to no effect | IC50 [3]: 1.3 ± 0.3 µM | approximate affinity inferred from intermediate-exchange line-broadening ([1]; NMR titration, line-broadening precluded Kd fit): low-μM or lower affinity

O[C@H]1[C@H](O)[C@@H](O)[C@H](O)[C@@H](O)[C@H]1O [Inositol]
binding observed by NMR (CSPs) [1]: no significant CSPs were observed | binding observed by NMR (CSPs) ([1]; listed as inositol): no significant binding

O=P(O)(O)OC1[C@H](O)[C@H](O)C(O)[C@H](O)[C@H]1O (stereo partly shown) [inositol-1-phosphate]
Kd ([1]; NMR titration): 870 ± 120 µM

BODIPY-FL diC6–PI(3,4)P2 [BODIPY-PI(3,4)P2]
Kd [4]: 0.35 ± 0.05 µM
